Values joined by “and” are separate entries in the source; they are usually repeats but may differ in a detail not shown here. Equal entries are not always repeated. “Also recorded” adds a separate entry of the source.
Legend:
[1] = Absorption of TSC into the blood stream after intramuscular injection with gamma cyclodextrin; type: in vivo; settings: rats
[2] = test system: ischemic tissue in brain sections; test: Ischemic stroke model: middle cerebral artery and two carotid arteries ligated for 2 hours; type: in vivo; settings: TSC 0.1 mg/kg given after removal of 2 hour ligature; rats sacrificed after 24 hours
Experimental: In order to find new drugs for stoke victims, different animal models of ischemic stroke are used. In one model, blood vessels (middle cerebral artery, two carotid arteries) are ligated for a period of 2 hours. The ligature is then removed, a drug is given, and the animals (rats in this case) are sacrificed after 24 hours. The brain sections are stained and examined in order to determine the amount of damaged (ischemic) tissue.

[3] = Solubility of TSC in aqueous cyclodextrin solutions; type: physicochemical
[4] = Stability of TSC in formulation as a function of pH; type: physicochemical; settings: formulation with glycine buffer; pH around 8.2+/-0.5 required
[5] = test system: collagenase-injection model of ICH; test: Collagenase-injection model of intracranial hemorrhage (ICH); type: in vivo, Sprague-Dawley rats
Experimental: Twelve male, Sprague-Dawley rats (Taconic, Inc.), weighing between 250 to 300 Grams were fed ad libitum and maintained on a 12-hour light/dark cycle. The rats were randomly assigned to 1 of 2 groups as follows: TSC-treated group (n=6) receiving intravenous infusion of TSC (total dose 0.091 mg/kg) and a Control group receiving intravenous infusion of 0.9% normal saline. A collagenase-injection model of ICH was utilized. Animals were anesthetized for 5 minutes with 5% halothane and endotracheally intubated. Anesthesia was maintained under 1 to 1.5% halothane with ventilation supported using Fi02 of 50%. Tail artery cannulation was applied to monitor the blood pressure and arterial blood gas, and a rectal temperature probe monitored body temperature. The right femoral vein was cannulated and connected to a microinjection infusion pump for TSC or saline administration. Body temperature was maintained at 37° C. with a heating pad. Rats were secured into a stereotactic frame with a midline incision over the skull and a cranial burr hole of 1 mm in diameter was drilled with 0.2 mm anterior and 3.5 mm right lateral to Bregma. A 26-gauge needle was inserted stereotactically into the right basal ganglion (5.5 mm ventral) and 5 μL collagenase (0.05 U bacteria collagenase; type IV, Sigma Chemical Co.) was infused at a rate of 1 μL/min using a microinfusion pump. The needle was kept in the striatum for an additional 5 minutes to limit collagenase flow back into the burr hole. After withdrawing the needle, the craniotomy was sealed with bone wax and the wound was sutured closed. TSC was injected intravenously 3 hours after ICH at a final total dosage of 0.091 mg/kg. The TSC formulation used was the sterile lyophilized TSC injectable formulation which was reconstituted with sterile water for injection and diluted with deionized water pH'd to 8.0 with dilute sodium carbonate. […] The outcomes assessed 48 hours post-ICH included hematoma volume, hemoglobin content representing hemorrhagic volume in the injected striatum, and tissue edema. […] Using Meta Morph image analysis software, the hemorrhage area for each section was measured and the total hematoma volume was calculated by summing the clot area in each section and multiplying by the thickness of the sections. A tissue edema index was calculated in each rat by measuring and comparing both of the hemispheres (Edema Index=(R−L)×100/L, R is right hemisphere volume, L is left hemisphere volume). A hemorrhagic volume index was quantified by measuring hemoglobin content in the injected hemisphere. […] This reaction converts hemoglobin to cyanomethemoglobin, the concentration of which can be assessed by the optical density (OD) of the solution at 550 nm wavelength. […]

[6] = test system: rabbit small clot embolic stroke model (RSCEM); test: Rabbit small clot embolic stroke model (RSCEM), quantal dose-response analysis of behavior; type: in vivo, Male New Zealand white rabbits; settings: TSC 0.25 mg/kg IV bolus 1 hour post-embolization; behavior measured 24 hours following embolization; Mean±SEM
Description: Methods: This model uses rabbits and is known as RSCEM. Male New Zealand white rabbits were anesthetized using isoflurane (5% induction, 2% maintenance by facemask), the bifurcation of the right carotid artery was exposed and the external carotid was ligated just distal to the bifurcation, where a catheter was inserted into the common carotid and secured with ligatures. The incision was closed around the catheter with the distal ends left accessible outside the neck; the catheter was filled with heparinized saline and plugged with an injection cap. Rabbits were allowed to recover from anesthesia for a minimum of 2 h until they behaved normally. […] Microclots were re-suspended in PBS, then washed and allowed to settle, followed by aspiration of the supernatant and spiking of the microclots with tracer quantities of 15-μm radiolabeled microspheres. The specific activity of the particles was determined by removing an aliquot, after which appropriate volumes of PBS solution were added so that a predetermined weight of clot particles were rapidly injected through the catheter and both the syringe and catheter were flushed with 5 ml of normal saline. […]
These parameters are measures of the amount of microclots (in mg) that produce neurologic dysfunction in 50% of a group of animals (P50). The P50 values are then calculated as described previously and are presented as Mean±SEM. […]

[7] = TSC 0.1 mg/kg, rat collagenase model (summary in description)

CC(/C=C/C=C(\C)C(=O)[O-])=C\C=C\C=C(C)\C=C\C=C(/C)C(=O)[O-].[Na+].[Na+] [TSC, trans sodium crocetinate]
absorption into the blood stream [1]: quick
reduction in the amount of ischemic tissue [2]: about 60%
TSC concentration reached in aqueous solution ([3]; TSC and gamma-cyclodextrin): ≤ 44 milligrams of TSC per ml of solution
TSC concentration reached in solution ([3]; TSC formulated with a cyclodextrin and mannitol): over 20 mg TSC/ml of solution
stability versus pH [4]: more stable at higher pHs
hemorrhage volume (amount of blood that hemorrhages into the brain) [5, 7]: decrease
reduction in amount of edema caused by the hemorrhagic stroke [5, 7]: about 50%
hematoma volume/size after ICH vs saline control ([5]; TSC total dose 0.091 mg/kg IV starting 3 hours after ICH, assessed 48 hours post-ICH, n=6, 0.091 mg/kg): slightly, but not statistically significantly, reduced; also recorded: did not differ
reduction in hemorrhagic volume (tissue hemoglobin content) vs saline control ([5]; TSC total dose 0.091 mg/kg IV starting 3 hours after ICH, assessed 48 hours post-ICH, n=6, p<0.05): approximately 20%
P50 (amount of microclots that produces neurologic dysfunction in 50% of a group of animals) [6]: 2.84±1.01 mg and 2.84±0.51 mg
